Source: paper PMC6433685, “Histone deacetylase inhibitor LMK235 attenuates vascular constriction and aortic remodelling in hypertension” (Journal of Cellular and Molecular Medicine, 2019)
pIC50: −log10 of the molar value.

Columns and labels:
[1] = system: spontaneously hypertensive rats (SHRs); assay: Systolic BP (tail-cuff) in spontaneously hypertensive rats; type: in vivo
Protocol: For the essential hypertension animal experiment, SHRs were used. The SHR is the most used model animal model for hypertension and is generally regarded as an essential hypertension model.13 SHRs (6 weeks old, approximately 170 g) were purchased from Charles River (Yokohama, Japan). Rats were intraperitoneally administered LMK235 or vehicle every 3 days for 2 weeks (n = 4 per group).
Systolic BP was measured by the tail‐cuff method (Visitech Systems, BP‐2000). Animals (mice and rats) were trained to allow for the measuring of BP before administration of the drug. Animals were trained to enter the holder at the same time more than three times a week to measure BP. For angiotensin II‐mice, systolic BP was measured when the mice were awake the day before they are killed. For SHRs, systolic BP was measured daily for 2 weeks.

HDAC7 = biological target: T1, HDAC7 (Homo sapiens, UniProt Q8WUI4); assay: HDAC7 fluorogenic enzyme assay kit (BPS Bioscience), cell-free; type: biochemical; conditions: 0.001-10 μmol/L inhibitor
T1 construct: purchased BPS Bioscience 50067

AT1 and ACE1 mRNA = AT1 and ACE1 mRNA (qRT-PCR) in aortas of angiotensin II-infusion mice; type: in vivo
Protocol: (§1) All animal procedures were approved by the Animal Experimental Committee of Chonnam National University Medical School (CNU IACUC‐H‐2014‐47) and carried out in accordance with the Guide for the Care and Use of Laboratory Animals (US National Institutes of Health Publications, 8th edition, 2011). CD‐1 mice (8 weeks old, 30‐35 g) were used in this study. Hypertension was induced by angiotensin II (Ang II, 1.3 mg/kg/day) infusion using 14‐day micro‐osmotic pumps (Alzet, model 1002; infusion rate of 0.25 μL/h) or saline alone. Ang II osmotic pumps were implanted subcutaneously after the injection of ketamine (120 mg/kg) and xylazine (6.2 mg/kg). One week after Ang II infusion, mice were administered LMK235 (1 or 3 mg/kg/day) or vehicle (dimethylsulphoxide [DMSO]) via intraperitoneal injection for 7 days. Mice were divided into three groups (n = 10‐12 per group): sham + vehicle, Ang II + vehicle, and Ang II + LMK235.
(§2) Total RNA from aortic tissue was isolated with TRIzol reagent (Invitrogen Life Technologies), and 1 μg of RNA was used for the reverse transcription reaction with TOPscript RT DryMIX (Enzynomics, South Korea). Quantification of mRNA levels was performed with the SYBR Green PCR kit (Enzynomics, South Korea).

HDAC5 = biological target: T2, HDAC5 (Homo sapiens, UniProt Q9UQL6); assay: HDAC5 fluorogenic enzyme assay kit (BPS Bioscience), cell-free; type: biochemical; conditions: 0.001-10 μmol/L inhibitor
T2 construct: purchased BPS Bioscience 50065
Protocol: Enzyme activity measurements of class I and IIa HDACs were performed using a cell‐free system and according to a method previously described.16 We used fluorogenic HDAC1 (#50061), HDAC2 (#50062), HDAC3 (#50063), HDAC4 (#50064), HDAC5 (#50065), HDAC6 (#50076), HDAC7 (#50067), HDAC8 (#50068) and HDAC9 (#50069) enzyme assay kits from BPS Bioscience (San Diego, CA, USA). To test the enzyme activity of LMK235, 0.001, 0.003, 0.01, 0.03, 0.1, 0.3, 1, 3 and 10 μmol/L concentrations were used. For the IC50 calculations, every data point was normalized to the vehicle (100% activity). The normalized data were fitted with a Hill non‐linear curve fit (OrigionPro 9.0).

HDAC4 = biological target: T3, HDAC4 (Homo sapiens, UniProt P56524); assay: HDAC4 fluorogenic enzyme assay kit (BPS Bioscience), cell-free; type: biochemical; conditions: 0.001-10 μmol/L inhibitor
T3 construct: purchased BPS Bioscience 50064

HDAC8 = biological target: T4, HDAC8 (Homo sapiens, UniProt Q9BY41); assay: HDAC8 fluorogenic enzyme assay kit (BPS Bioscience), cell-free; type: biochemical; conditions: 0.001-10 μmol/L inhibitor
T4 construct: purchased BPS Bioscience 50068

rat aortic rings = assay: Isometric tension: relaxation of U46619-induced contraction in rat aortic rings; design: species or system Sprague‐Dawley rats; conditions: U46619 30 nmol/L, LMK235 cumulative 0.1-100 μmol/L
Source text: Male Sprague‐Dawley rats were purchased from Orient Bio (Gyeonggi‐do, South Korea). The thoracic aortas and mesenteric arteries were excised and immersed in an ice‐cold, modified Krebs solution composed of NaCl (115 mmol/L), KCl (4.7 mmol/L), CaCl2 (2.5 mmol/L), MgCl2 (1.2 mmol/L), NaHCO3 (25 mmol/L), KH2PO4 (1.2 mmol/L) and dextrose (10 mmol/L). Mesenteric arteries are secondary branches of the main mesenteric trunk. The aortas and mesenteric arteries were cleaned by removing adherent connective tissue, soaked in the Krebs‐bicarbonate solution and cut into four ring segments (3.5 mm in length), as described previously.14 Some rings were denuded of endothelium by gently rubbing the internal surface with the edge of the forceps. Each aortic ring was suspended in a water‐jacketed organ bath (6 mL) maintained at 37°C and aerated with a mixture of 95% O2 and 5% CO2. Each ring was connected to an isometric force transducer (Danish Myo Technology, Skejbyparken, Aarhus N, Denmark). Rings were stretched to an optimal resting tension of 2.0 g, which was maintained throughout the experiment. Each ring was equilibrated in the organ bath solution for 90 minutes before the experiment involving the contractile response to 50 mmol/L of KCl addition. […]

[2] = system: cyclin D1, E2F3, p21, CaMKIIα mRNA; assay: Cell cycle gene and CaMKIIα mRNA (qRT-PCR) in aortas of angiotensin II-infusion mice; type: in vivo; conditions: Ang II-infusion mice
Protocol: as §1, §2

HDAC1 = biological target: T5, HDAC1 (Homo sapiens, UniProt Q13547); assay: HDAC1 fluorogenic enzyme assay kit (BPS Bioscience), cell-free; type: biochemical; conditions: 0.001-10 μmol/L inhibitor
T5 construct: purchased BPS Bioscience 50061

[3] = system: angiotensin II‐infusion mice; assay: Aortic wall thickness (H&E) in angiotensin II-infusion mice; type: in vivo; conditions: Ang II-infusion mice; 3 mg/kg/day for 1 week
Protocol: as §1
The paraffin‐embedded tissues were cut into 3‐μm‐thick sections, deparaffinized with xylene and then rehydrated with graded alcohol. Haematoxylin and eosin (H&E) staining was performed as described, with slight modifications.15 The arterial wall thickness was measured using NIS Elements Software (Nikon, Japan).

T1 sequence (Q8WUI4 whole entry): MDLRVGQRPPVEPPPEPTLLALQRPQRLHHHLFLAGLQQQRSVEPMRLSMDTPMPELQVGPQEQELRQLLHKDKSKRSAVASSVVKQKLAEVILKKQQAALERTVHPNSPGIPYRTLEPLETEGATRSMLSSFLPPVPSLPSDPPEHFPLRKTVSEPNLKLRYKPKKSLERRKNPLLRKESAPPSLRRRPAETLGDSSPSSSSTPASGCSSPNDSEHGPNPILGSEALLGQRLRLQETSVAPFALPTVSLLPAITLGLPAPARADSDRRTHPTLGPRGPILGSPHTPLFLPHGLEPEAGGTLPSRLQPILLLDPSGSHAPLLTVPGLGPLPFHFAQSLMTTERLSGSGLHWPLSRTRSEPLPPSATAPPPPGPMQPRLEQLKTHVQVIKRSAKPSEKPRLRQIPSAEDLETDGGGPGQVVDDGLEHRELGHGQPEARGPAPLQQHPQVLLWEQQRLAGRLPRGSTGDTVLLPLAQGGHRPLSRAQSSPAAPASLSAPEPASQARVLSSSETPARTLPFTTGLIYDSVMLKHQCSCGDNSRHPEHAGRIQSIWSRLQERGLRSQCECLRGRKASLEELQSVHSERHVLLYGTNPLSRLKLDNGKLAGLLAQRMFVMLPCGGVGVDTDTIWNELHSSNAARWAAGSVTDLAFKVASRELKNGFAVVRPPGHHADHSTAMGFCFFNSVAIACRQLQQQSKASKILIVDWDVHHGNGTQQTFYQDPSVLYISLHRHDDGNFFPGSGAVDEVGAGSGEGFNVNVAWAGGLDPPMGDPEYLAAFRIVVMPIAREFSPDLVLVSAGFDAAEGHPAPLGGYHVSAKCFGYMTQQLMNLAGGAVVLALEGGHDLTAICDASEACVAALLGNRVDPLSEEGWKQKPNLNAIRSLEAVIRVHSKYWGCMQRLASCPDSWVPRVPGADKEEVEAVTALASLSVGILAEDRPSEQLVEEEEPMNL
T3 sequence (P56524 whole entry): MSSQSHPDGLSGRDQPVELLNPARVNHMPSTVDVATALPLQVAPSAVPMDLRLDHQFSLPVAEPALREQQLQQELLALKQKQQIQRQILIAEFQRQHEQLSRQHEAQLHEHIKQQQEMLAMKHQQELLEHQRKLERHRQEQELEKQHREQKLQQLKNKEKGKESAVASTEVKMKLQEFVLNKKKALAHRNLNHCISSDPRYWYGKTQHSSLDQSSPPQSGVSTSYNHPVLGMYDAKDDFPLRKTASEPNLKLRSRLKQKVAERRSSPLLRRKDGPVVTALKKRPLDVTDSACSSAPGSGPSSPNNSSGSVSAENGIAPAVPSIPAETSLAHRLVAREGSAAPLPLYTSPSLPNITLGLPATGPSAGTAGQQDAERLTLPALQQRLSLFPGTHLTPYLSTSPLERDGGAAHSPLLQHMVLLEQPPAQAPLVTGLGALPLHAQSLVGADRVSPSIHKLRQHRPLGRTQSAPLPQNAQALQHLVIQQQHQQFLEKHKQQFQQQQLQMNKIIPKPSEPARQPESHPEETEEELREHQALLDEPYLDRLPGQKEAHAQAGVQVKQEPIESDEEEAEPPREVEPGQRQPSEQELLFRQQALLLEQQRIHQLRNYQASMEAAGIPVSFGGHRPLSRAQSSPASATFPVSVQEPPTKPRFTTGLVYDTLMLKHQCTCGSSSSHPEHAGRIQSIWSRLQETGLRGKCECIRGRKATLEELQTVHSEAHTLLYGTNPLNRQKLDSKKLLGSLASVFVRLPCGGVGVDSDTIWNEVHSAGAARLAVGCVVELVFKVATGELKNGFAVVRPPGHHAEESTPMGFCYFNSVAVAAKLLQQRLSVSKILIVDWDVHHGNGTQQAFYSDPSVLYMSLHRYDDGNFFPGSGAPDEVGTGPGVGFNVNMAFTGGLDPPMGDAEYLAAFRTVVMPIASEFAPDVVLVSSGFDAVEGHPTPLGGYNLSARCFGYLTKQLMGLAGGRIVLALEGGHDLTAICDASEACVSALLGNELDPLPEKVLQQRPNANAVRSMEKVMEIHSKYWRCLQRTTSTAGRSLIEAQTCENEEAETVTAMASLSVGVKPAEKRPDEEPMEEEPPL
T4 sequence (Q9BY41 whole entry): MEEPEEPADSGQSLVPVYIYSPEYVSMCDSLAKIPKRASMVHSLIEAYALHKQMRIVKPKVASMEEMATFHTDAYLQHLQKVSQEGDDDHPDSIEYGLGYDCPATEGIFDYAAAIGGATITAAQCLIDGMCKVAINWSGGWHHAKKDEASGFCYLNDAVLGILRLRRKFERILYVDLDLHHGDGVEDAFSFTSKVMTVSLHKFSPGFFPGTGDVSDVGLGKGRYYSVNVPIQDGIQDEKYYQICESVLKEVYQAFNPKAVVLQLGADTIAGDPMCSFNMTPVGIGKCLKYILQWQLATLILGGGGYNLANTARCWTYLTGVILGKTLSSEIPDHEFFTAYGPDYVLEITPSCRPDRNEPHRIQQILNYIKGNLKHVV
T2 sequence (Q9UQL6 whole entry): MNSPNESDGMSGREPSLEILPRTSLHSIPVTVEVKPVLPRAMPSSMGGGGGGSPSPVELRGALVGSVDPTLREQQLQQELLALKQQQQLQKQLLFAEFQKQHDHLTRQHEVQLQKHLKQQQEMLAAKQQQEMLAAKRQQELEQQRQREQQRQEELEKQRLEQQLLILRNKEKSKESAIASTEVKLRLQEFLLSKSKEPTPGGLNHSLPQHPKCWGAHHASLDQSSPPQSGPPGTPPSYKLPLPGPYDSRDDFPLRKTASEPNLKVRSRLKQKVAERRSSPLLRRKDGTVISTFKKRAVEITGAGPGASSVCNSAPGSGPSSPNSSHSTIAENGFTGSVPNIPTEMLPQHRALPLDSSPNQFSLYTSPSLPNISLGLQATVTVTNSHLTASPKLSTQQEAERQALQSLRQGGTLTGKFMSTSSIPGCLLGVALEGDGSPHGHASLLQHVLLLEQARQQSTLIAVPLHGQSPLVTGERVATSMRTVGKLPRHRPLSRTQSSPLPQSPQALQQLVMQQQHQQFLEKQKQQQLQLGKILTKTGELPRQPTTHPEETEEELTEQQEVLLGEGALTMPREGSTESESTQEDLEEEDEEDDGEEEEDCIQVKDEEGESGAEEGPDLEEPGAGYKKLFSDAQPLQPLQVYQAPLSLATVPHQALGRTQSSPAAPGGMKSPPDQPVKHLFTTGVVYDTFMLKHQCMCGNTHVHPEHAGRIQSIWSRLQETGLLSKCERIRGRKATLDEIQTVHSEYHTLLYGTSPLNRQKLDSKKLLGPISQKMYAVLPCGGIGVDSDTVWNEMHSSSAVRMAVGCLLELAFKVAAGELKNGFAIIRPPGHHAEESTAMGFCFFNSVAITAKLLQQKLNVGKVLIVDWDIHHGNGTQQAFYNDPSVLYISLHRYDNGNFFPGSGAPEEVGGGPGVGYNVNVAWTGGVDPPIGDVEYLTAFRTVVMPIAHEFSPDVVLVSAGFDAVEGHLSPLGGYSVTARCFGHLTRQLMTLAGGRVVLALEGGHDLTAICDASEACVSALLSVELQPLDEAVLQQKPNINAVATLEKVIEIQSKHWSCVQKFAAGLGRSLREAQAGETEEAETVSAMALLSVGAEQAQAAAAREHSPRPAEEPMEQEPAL
T5 sequence (Q13547 whole entry): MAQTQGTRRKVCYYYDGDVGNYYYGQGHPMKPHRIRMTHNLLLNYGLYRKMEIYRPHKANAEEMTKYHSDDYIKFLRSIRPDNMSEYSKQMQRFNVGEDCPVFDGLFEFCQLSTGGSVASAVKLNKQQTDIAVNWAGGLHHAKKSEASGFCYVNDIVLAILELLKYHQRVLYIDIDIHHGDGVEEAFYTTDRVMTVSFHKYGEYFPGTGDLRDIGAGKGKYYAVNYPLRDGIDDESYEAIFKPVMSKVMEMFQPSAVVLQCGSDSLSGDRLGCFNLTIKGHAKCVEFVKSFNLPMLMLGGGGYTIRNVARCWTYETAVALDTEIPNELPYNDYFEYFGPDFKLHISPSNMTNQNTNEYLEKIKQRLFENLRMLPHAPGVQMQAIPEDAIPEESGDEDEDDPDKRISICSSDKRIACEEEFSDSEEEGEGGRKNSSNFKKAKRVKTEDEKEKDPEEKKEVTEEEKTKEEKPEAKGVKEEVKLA

## Cc1cc(C)cc(C(=O)NOCCCCCC(=O)NO)c1 [LMK235]
[1]; 1 mg/kg/day (data not shown)
  hypertension lowering effect: did not exhibit a hypertension lowering effect
[1]; 3 mg/kg i.p. every 3 days
  duration of BP lowering effect: 2 days
[1]; 3 mg/kg i.p. every 3 days, 2 days after treatment
  systolic BP: significantly lowered
[1]; 3 mg/kg i.p. every 3 days, 3 days after administration
  systolic BP: restored to a comparable level
HDAC7
  pIC50: < 4.70
AT1 and ACE1 mRNA; Ang II-infusion mice
  AT1 transcript levels in aorta: not reduced
AT1 and ACE1 mRNA; either hypertension model (Ang II mice and SHRs)
  aortic ACE1 or AT1 expression: did not affect
HDAC5
  pIC50: < 4.70
HDAC4
  pIC50: < 4.70
HDAC8
  pIC50: 5.95
Rat aortic rings; endothelium-denuded aortic rings
  U46619-induced vasoconstriction: inhibited
Rat aortic rings; endothelium-intact aortic rings
  U46619-induced vasoconstriction: dose dependently reduced
[2]
  CaMKIIα mRNA levels in aorta: significantly reduced
  E2F3 mRNA levels in aorta: significantly suppressed
  cyclin D1 mRNA levels in aorta: significantly suppressed
  p21 transcript levels in aorta: restored the repressed p21 expression
HDAC1
  pIC50: 7.52
[3]
  aortic wall thickness: completely inhibited the increased aortic wall thickness
